Data as given in US20240207263A1, “SELECTIVE MODULATORS OF ATAXIA TELA[…] (ATM) KINASE AND USES THEREOF” (priority 2021, published 2024).

What was measured:
[1] = target: ATM (phospho-ATM Ser1981) in SN38 treated HT-29 cells (Homo sapiens (Human), UniProt Q13315); experiment: cell-based; conditions: HT-29 cells, SN-38; read-out: SN-38 HT-29 cellular IC50
Method: Assay g): ATM SN-38 HT-29 Cellular Potency
SN38 causes single strand DNA breaks (SSBs) which are converted to double strand breaks (DSBs) during replication. ATM plays role of repairing DSBs. Inhibition of ATM was evaluated in SN38 treated HT-29 cells (ATCC, Cat #HTB-38) by high-Content Imaging System
The graphical views were then generated using Prism 7.0 (Graphpad).

ATM = ATM (Homo sapiens (Human), UniProt Q13315); experiment: biochemical; type: biochemical; conditions: read-out: ATM IC50
From the text: Assay a): ATM Biochemical Potency
Data was collected by Caliper.

[2] = test system: phosp-KAP1 in MCF-7 cells; experiment: phosp-KAP1 MCF-7 cellular potency assay (Assay f); type: cell-based; conditions: Homo sapiens, MCF7; MCF-7 cells, etoposide; read-out: Etoposide MCF-7 cellular IC50
Method: Assay f): phosp-KAP1 MCF-7 Cellular Potency
MCF-7 cells were seeded to a 384-well cell-culture plate, 25 μl/well which were incubated at 37° C. and 5% CO2 for 24 hr. Test compounds were added to the 384-well plates. Etoposide at final concentration of 100 μM was then added to each well except Vehicle control wells, which were incubated at 37° C. and 5% CO2 for 1 hour. After medium removal, cells were fixed by the addition of 25 μl/well of 8% paraformaldehyde in PBSA and incubated for 20 minutes at room temperature. After the plates were rinsed 3 times with PBSA, 50 ul permeabilization buffer (0.1% Triton X-100 in PBS) was added and the plates were incubated for 20 minutes at room temperature. After the plates were rinsed with PBSA, block the cells by adding 50 μl of Odyssey Blocking Buffer in 384-well plate and then incubate for 1.5 hours at room temperature. Remove blocking buffer by Plate washer (BioTek ELx405 select CW). […] The plates were rinsed 5 times with PBST (0.1% Tween-20 in PBS).
• 1) Fluorescence intensity (FI) was detected for each well. • 2) % inhibition is calculated as follow:
[formula] • FIpositive: The average FI for the positive controls across the plate. • FIvehicle: The average FI for negative controls across the plate. • 3) Calculate IC50 and Plot effect-dose curve of compounds: • Calculate IC50 by fitting % inhibition values and log of compound concentrations to nonlinear regression (dose response−variable slope) with Graphpad prism 6.0.
Y=Bottom+(Top−Bottom)/(1+10^((Log IC50−X)*HillSlope)) • X: log of compounds concentration; Y: % inhibition

ATM, sequence (Q13315 whole entry, looked up): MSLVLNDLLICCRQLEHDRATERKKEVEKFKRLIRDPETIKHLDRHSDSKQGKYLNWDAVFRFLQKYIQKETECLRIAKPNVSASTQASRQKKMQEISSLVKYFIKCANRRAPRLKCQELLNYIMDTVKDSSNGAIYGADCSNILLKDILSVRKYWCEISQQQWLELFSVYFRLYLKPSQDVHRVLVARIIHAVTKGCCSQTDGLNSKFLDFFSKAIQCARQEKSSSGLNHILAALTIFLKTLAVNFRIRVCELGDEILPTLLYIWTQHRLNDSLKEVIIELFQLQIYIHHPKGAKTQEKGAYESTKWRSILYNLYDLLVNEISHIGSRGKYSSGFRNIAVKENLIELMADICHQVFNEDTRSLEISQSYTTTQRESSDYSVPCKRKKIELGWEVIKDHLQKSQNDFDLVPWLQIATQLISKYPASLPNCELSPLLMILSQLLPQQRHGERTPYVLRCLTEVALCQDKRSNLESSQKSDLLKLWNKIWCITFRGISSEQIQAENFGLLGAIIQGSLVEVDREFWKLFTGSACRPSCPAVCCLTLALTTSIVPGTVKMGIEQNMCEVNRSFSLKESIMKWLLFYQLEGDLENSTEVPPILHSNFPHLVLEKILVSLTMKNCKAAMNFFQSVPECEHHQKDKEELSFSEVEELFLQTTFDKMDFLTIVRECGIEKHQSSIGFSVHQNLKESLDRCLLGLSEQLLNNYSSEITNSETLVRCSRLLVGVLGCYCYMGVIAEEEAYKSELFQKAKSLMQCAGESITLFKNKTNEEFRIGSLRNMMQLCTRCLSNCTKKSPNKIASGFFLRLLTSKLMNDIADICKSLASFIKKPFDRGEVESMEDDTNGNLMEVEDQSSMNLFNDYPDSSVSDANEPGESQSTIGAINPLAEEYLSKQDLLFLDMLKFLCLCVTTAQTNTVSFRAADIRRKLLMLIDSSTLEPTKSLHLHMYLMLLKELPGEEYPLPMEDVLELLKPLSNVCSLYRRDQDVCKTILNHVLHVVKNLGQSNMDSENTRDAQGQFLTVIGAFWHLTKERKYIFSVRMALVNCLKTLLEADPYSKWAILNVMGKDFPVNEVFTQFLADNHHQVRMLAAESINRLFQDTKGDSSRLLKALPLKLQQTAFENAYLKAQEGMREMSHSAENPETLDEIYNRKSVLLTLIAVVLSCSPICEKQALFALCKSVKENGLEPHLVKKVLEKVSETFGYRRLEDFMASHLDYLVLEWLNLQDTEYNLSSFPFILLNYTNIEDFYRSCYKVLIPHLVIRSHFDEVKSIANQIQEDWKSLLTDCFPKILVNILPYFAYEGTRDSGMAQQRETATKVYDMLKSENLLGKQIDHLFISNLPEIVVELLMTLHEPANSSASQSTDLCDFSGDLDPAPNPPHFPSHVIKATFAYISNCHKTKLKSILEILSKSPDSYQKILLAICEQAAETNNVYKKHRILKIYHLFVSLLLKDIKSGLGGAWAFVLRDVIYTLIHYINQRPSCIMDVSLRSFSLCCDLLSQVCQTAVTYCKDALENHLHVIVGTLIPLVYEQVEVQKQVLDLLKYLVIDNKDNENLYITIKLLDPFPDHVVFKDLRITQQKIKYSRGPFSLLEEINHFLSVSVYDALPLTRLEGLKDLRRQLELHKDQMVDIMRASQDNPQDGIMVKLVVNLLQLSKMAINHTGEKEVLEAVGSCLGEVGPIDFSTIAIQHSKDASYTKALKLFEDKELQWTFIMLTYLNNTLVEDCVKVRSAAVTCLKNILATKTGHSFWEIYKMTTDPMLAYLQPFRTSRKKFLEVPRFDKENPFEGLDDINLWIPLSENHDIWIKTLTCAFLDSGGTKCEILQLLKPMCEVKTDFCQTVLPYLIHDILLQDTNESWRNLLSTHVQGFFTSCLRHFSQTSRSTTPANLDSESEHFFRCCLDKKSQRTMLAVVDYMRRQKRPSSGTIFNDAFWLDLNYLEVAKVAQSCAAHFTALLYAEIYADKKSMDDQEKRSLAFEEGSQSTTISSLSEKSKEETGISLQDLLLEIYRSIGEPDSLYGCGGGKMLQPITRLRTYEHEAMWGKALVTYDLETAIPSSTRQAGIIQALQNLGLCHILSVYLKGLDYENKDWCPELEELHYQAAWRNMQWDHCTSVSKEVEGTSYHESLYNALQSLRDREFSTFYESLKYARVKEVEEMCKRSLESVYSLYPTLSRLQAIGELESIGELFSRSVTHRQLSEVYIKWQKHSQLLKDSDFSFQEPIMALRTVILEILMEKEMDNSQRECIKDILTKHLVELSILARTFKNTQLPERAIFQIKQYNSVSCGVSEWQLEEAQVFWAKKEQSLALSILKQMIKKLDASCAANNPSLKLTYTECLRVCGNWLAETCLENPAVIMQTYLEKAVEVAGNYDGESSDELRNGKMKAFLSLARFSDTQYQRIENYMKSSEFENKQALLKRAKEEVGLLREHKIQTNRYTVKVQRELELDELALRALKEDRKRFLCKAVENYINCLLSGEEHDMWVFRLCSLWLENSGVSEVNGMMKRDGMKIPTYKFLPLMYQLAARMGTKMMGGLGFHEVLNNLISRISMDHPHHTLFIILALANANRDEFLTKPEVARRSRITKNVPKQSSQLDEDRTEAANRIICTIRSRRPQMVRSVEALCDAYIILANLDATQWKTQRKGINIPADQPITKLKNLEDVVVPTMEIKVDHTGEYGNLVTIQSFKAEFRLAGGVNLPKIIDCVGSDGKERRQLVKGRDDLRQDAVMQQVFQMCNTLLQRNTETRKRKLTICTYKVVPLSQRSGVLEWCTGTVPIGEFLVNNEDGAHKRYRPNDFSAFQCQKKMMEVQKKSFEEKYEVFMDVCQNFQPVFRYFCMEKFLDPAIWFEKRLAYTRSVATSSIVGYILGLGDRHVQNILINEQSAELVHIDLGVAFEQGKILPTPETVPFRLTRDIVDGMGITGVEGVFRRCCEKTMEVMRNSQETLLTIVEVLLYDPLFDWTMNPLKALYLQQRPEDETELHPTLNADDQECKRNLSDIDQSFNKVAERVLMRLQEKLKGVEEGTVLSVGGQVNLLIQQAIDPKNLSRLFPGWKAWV
ATM (phospho-ATM Ser1981) in SN38 treated HT-29 cells, sequence (Q13315 whole entry, looked up): as above

| SMILES | IC50 [1] | IC50 (ATM) | IC50 [2] |
| --- | --- | --- | --- |
| CO[C@H]1CCN(CCOCc2ccc(-c3ccc4nnc5c(c4c3)n(C(C)C)c(=O)n5C)cn2)C1 [Example 43, (S)-1-isopropyl-8-(6-((2-(3-methoxypyrrolidin-1-yl)ethoxy)methyl)pyridin-3-yl)-3-methyl-1H-imidazo[4,5-c]cinnolin-2(3H)-one] | 92 nM | 12 nM | – |
| CC(C)n1c(=O)n(C)c2nnc3ccc(-c4ccc([C@@H](C)OCCN5CCC(OC(F)F)C5)nc4)cc3c21 (stereo partly drawn) [Example 54, 8-(6-((1R)-1-(2-(3-(difluoromethoxy)pyrrolidin-1-yl)ethoxy)ethyl)pyridin-3-yl)-1-isopropyl-3-methyl-1H-imidazo[4,5-c]cinnolin-2(3H)-one] | – | – | 17 nM |
| CC(C)n1c(=O)n(C)c2nnc3ccc(-c4ccc([C@@H](C)OCCN5CCC6(CC5)CC6)nc4)cc3c21 [Example 55, (R)-8-(6-(1-(2-(6-azaspiro[2.5]octan-6-yl)ethoxy)ethyl)pyridin-3-yl)-1-isopropyl-3-methyl-1H-imidazo[4,5-c]cinnolin-2(3H)-one] | – | 3.2 nM | 11 nM |
| CO[C@H]1CCN(CCO[C@H](C)c2ccc(-c3ccc4nnc5c(c4c3)n(C(C)C)c(=O)n5C)cn2)C1 [Example 59, 1-isopropyl-8-(6-((R)-1-(2-((S)-3-methoxypyrrolidin-1-yl)ethoxy)ethyl)pyridin-3-yl)-3-methyl-1H-imidazo[4,5-c]cinnolin-2(3H)-one] | – | 8.3 nM | 65 nM |
| CC(C)n1c(=O)n(C)c2nnc3ccc(-c4ccc([C@@H](C)OCCN5CCC6(COC6)C5)nc4)cc3c21 [Example 86, (R)-8-(6-(1-(2-(2-oxa-6-azaspiro[3.4]octan-6-yl)ethoxy)ethyl)pyridin-3-yl)-1-isopropyl-3-methyl-1H-imidazo[4,5-c]cinnolin-2(3H)-one] | – | 3.6 nM | 12 nM |
| Cn1c(=O)n(C2CCOCC2)c2c3cc(-c4ccc(COCCN5CCC(C)(C)C5)nc4)ccc3nnc21 [Example 97, 8-(6-((2-(3,3-dimethylpyrrolidin-1-yl)ethoxy)methyl)pyridin-3-yl)-3-methyl-1-(tetrahydro-2H-pyran-4-yl)-1H-imidazo[4,5-c]cinnolin-2(3H)-one] | – | 14 nM | 43 nM |
| C[C@@H](OCCN1CCC(C)(C)CC1)c1ccc(-c2ccc3nnc4c(c3c2)n(C2CCOCC2)c(=O)n4C)cn1 [Example 103, (R)-8-(6-(1-(2-(4,4-dimethylpiperidin-1-yl)ethoxy)ethyl)pyridin-3-yl)-3-methyl-1-(tetrahydro-2H-pyran-4-yl)-1H-imidazo[4,5-c]cinnolin-2(3H)-one] | – | 3.9 nM | 20 nM |
| CO[C@H]1CCN(CCO[C@H](C)c2ccc(-c3ccc4nnc5c(c4c3)n(C3CCOCC3)c(=O)n5C)cn2)C1 [Example 105, 8-(6-((R)-1-(2-((S)-3-methoxypyrrolidin-1-yl)ethoxy)ethyl)pyridin-3-yl)-3-methyl-1-(tetrahydro-2H-pyran-4-yl)-1H-imidazo[4,5-c]cinnolin-2(3H)-one] | – | – | 36 nM |
| COC1CCN(CCO[C@H](C)c2ccc(-c3ccc4nnc5c(c4c3)n(C3CCOCC3)c(=O)n5C)cn2)CC1 [Example 110, (R)-8-(6-(1-(2-(4-methoxypiperidin-1-yL)ethoxy)ethyl)pyridin-3-yl)-3-methyl-1-(tetrahydro-2H-pyran-4-yl)-1H-imidazo[4,5-c]cinnolin-2(3H)-one] | – | 6.9 nM | 13 nM |
| C[C@@H](OCCN1CCC(C(F)(F)F)CC1)c1ccc(-c2ccc3nnc4c(c3c2)n(C2CCOCC2)c(=O)n4C)cn1 [Example 117, (R)-3-methyl-1-(tetrahydro-2H-pyran-4-yl)-8-(6-(1-(2-(4-(trifluoromethyl)piperidin-1-yl)ethoxy)ethyl)pyridin-3-yl)-1H-imidazo[4,5-c]cinnolin-2(3H)-one] | – | 3.7 nM | 65 nM |
| C[C@@H](OCCN1CCC2(CCC2)C1)c1ccc(-c2ccc3nnc4c(c3c2)n(C2CCOCC2)c(=O)n4C)cn1 [Example 118, (R)-8-(6-(1-(2-(6-azaspiro[3.4]octan-6-yl)ethoxy)ethyl)pyridin-3-yl)-3-methyl-1-(tetrahydro-2H-pyran-4-yl)-1H-imidazo[4,5-c]cinnolin-2(3H)-one] | – | 4.1 nM | 71 nM |
| CC(C)n1c(=O)n(C)c2nnc3cc(F)c(-c4ccc(COCCN5CCC(C)(C)CC5)nc4)cc3c21 [Example 133, 8-(6-((2-(4,4-dimethylpiperidin-1-yl)ethoxy)methyl)pyridin-3-yl)-7-fluoro-1-isopropyl-3-methyl-1H-imidazo[4,5-c]cinnolin-2(3H)-one] | – | 13 nM | 44 nM |
| CC(C)n1c(=O)n(C)c2nnc3cc(F)c(-c4ccc([C@@H](C)OCCN5CCC(C)(C)C5)nc4)cc3c21 [Example 137, (R)-8-(6-(1-(2-(3,3-dimethylpyrrolidin-1-yl)ethoxy)ethyl)pyridin-3-yl)-7-fluoro-1-isopropyl-3-methyl-1H-imidazo[4,5-c]cinnolin-2(3H)-one] | – | 6.3 nM | 22 nM |
| CC(C)n1c(=O)n(C)c2nnc3cc(F)c(-c4ccc([C@@H](C)OCCN5CCC6(CC5)CC6)nc4)cc3c21 [Example 140, (R)-8-(6-(1-(2-(6-azaspiro[2.5]octan-6-yl)ethoxy)ethyl)pyridin-3-yl)-7-fluoro-1-isopropyl-3-methyl-1H-imidazo[4,5-c]cinnolin-2(3H)-one] | – | 2.8 nM | 14 nM |
| COC1CCN(CCO[C@H](C)c2ccc(-c3cc4c(cc3F)nnc3c4n(C(C)C)c(=O)n3C)cn2)CC1 [Example 142, (R)-7-fluoro-1-isopropyl-8-(6-(1-(2-(4-methoxypiperidin-1-yl)ethoxy)ethyl)pyridin-3-yl)-3-methyl-1H-imidazo[4,5-c]cinnolin-2(3H)-one] | – | 4.7 nM | 24 nM |
| CC(C)n1c(=O)n(C)c2nnc3cc(F)c(-c4ccc([C@@H](C)OCCN5CCC(OC(F)(F)F)CC5)nc4)cc3c21 [Example 144, (R)-7-fluoro-1-isopropyl-3-methyl-8-(6-(1-(2-(4-(trifluoromethoxy)piperidin-1-yl)ethoxy)ethyl)pyridin-3-yl)-1H-imidazo[4,5-c]cinnolin-2(3H)-one] | – | 2.9 nM | 47 nM |
| C[C@@H](OCCN1CCC(C)(C)C1)c1ccc(-c2cc3c(cc2F)nnc2c3n(C3CCOCC3)c(=O)n2C)cn1 [Example 153, (R)-8-(6-(1-(2-(3,3-dimethylpyrrolidin-1-yl)ethoxy)ethyl)pyridin-3-yl)-7-fluoro-3-methyl-1-(tetrahydro-2H-pyran-4-yl)-1H-imidazo[4,5-c]cinnolin-2(3H)-one] | – | 8.5 nM | 43 nM |
| CO[C@H]1C[C@@H](n2c(=O)n(C)c3nnc4ccc(-c5ccc(COCCN6CCC(F)CC6)nc5)cc4c32)C1 [Example 174, 8-(6-((2-(4-fluoropiperidin-1-yl)ethoxy)methyl)pyridin-3-yl)-1-(cis-3-methoxycyclobutyl)-3-methyl-1H-imidazo[4,5-c]cinnolin-2(3H)-one] | – | 28 nM | 26 nM |
| CCC(OCCN1CCCC1)c1ccc(-c2ccc3nnc4c(c3c2)n(C(C)C)c(=O)n4C)cn1 (stereo not drawn) [Example 219, 1-isopropyl-3-methyl-8-(6-(1-(2-(pyrrolidin-1-yl)ethoxy)propyl)pyridin-3-yl)-1H-imidazo[4,5-c]cinnolin-2(3H)-one] | – | 57 nM | – |
| CCCC(OCCN1CCCC1)c1ccc(-c2ccc3nnc4c(c3c2)n(C(C)C)c(=O)n4C)cn1 (stereo not drawn) [Example 220, 1-isopropyl-3-methyl-8-(6-(1-(2-(pyrrolidin-1-yl)ethoxy)butyl)pyridin-3-yl)-1H-imidazo[4,5-c]cinnolin-2(3H)-one] | – | 147 nM | – |
| CC(C)C(OCCN1CCCC1)c1ccc(-c2ccc3nnc4c(c3c2)n(C(C)C)c(=O)n4C)cn1 (stereo not drawn) [Example 221, 1-isopropyl-3-methyl-8-(6-(2-methyl-1-(2-(pyrrolidin-1-yl)ethoxy)propyl)pyridin-3-yl)-1H-imidazo[4,5-c]cinnolin-2(3H)-one] | – | 156 nM | – |
| CC(C)n1c(=O)n(C)c2nnc3cc(F)c(-c4ccc(COCCN5CCC(F)CC5)nc4)cc3c21 [Ref compd 1, 7-fluoro-8-(6-((2-(4-fluoropiperidin-1-yl)ethoxy)methyl)pyridin-3-yl)-1-isopropyl-3-methyl-1H-imidazo[4,5-c]cinnolin-2(3H)-one, reference compound] | 273 nM | 25 nM | – |
